Experimental data: patent publication US20190119284A1, “ErbB Inhibitors and Uses Thereof” (The Regents of the University of California, priority 2016, published 2019)
Like-named read-outs stand apart in the source and are kept apart here.

Legend:
Assay type in all cases: cell-based
[1] = target: 2YF/3wt + NRG Ba/F3 cells (HER2YF/HER3wt) (Homo sapiens, UniProt P04626, Y1005F/Y1023F/Y1112F/Y1127F/Y1139F/Y1196F/Y1221F/Y1222F/Y1248F, cells depend on it); test: Ba/F3 proliferation assay, 2YF/3wt + NRG; details: Tables 7 and 8; read-out: Ba/F3 line IC50, HER2YF/HER3 + NRG
From the text: Ba/F3 cells are normally dependent on IL-3 signaling for their proliferation and survival, but can be made dependent on introduced oncogenic signals. We sequentially selected transduced Ba/F3 cells for populations stably expressing HER3 and then HER2. To ensure that all of the proliferative signal could be attributed to HER2/HER3 heterodimers, rather than HER2 homodimers, the 9 C-terminal tyrosines in HER2 were mutated to phenylalanine (HER2YF). We then withdrew IL-3 and supplemented the media with NRG to select for NRG dependent HER2YF/HER3wt cells (2YF/3wt).
For the 2YF/3wt cells, the parental cells were first transduced with HER3 according to the protocol above and were then spun down at 500×g for 5 min and re-suspended in media supplemented with 10 ng/mL IL-3 and 3 μg/mL puromycin (Invitrogen). Cells were maintained in these conditions for seven days, passaging as required. After seven days the cells were spun down, washed with fresh media, and then used for a subsequent round of transduction according to the protocol above with HER2YF virus. […] The cells were maintained in these conditions for seven days, passaging as required. After seven days the cells were spun down, washed with fresh media, and then suspended in media supplemented with 10 ng/mL of NRG. Cells were maintained in these conditions for seven days to select for a NRG dependent population of 2YF/3wt Ba/F3 cells that were then maintained as described above. The same protocol was used for the 2YF-L755S/3wt, 2YF-YVMA/3wt, and 2YF-VC/3wt cell lines using the indicated constructs.
Proliferation Assays. […] The following day media was changed to fresh media that contained either DMSO or the indicated concentration of drug plus NRG (50 ng/mL final concentration) as indicated. […] For all normalized assays, proliferation was normalized to the DMSO control condition. All graphs were plotted in GraphPad Prism 6 and fit with a non-linear regression of the log(inhibitor) vs response with a variable slope where shown. All graphs are averages (+/−standard deviation) of biological triplicates each performed in technical triplicate unless otherwise noted. If only one biological replicate was performed standard deviations were derived from the technical replicates.

Axl+ Ba/F3 cells = target: T1, Axl+ Ba/F3 cells (Homo sapiens, UniProt P30530); test: Ba/F3 proliferation assay, Axl+; details: Tables 7 and 8; read-out: Ba/F3 line IC50, Axl+
T1 sequence (P30530 1-894): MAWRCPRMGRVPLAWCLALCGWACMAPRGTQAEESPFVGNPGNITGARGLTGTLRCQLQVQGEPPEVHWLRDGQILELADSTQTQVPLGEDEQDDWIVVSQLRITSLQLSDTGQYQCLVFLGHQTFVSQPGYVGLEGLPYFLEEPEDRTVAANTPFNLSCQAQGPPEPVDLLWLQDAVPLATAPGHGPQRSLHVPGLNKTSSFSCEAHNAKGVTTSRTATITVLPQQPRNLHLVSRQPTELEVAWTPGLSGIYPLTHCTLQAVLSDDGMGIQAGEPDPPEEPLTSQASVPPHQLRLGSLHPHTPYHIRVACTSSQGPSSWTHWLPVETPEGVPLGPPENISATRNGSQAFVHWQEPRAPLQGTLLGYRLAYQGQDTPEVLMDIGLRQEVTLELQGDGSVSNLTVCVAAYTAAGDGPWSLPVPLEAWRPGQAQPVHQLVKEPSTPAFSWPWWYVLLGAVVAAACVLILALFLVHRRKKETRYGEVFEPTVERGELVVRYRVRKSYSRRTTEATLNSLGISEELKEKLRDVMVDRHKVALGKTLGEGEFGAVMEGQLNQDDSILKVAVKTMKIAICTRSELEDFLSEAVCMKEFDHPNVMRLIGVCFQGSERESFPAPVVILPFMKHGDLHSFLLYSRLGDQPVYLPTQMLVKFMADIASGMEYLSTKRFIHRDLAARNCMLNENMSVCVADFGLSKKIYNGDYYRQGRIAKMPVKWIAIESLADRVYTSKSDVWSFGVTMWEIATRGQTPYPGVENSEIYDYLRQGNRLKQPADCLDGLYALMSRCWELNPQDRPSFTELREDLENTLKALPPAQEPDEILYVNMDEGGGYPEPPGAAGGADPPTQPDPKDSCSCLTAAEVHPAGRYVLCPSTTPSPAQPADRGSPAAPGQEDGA
Procedure: (§1) To validate the screen and test the effectiveness of counter-screening with either the same 2YF/3wt Ba/F3 cell line or the parental Ba/F3's in the presence of IL-3 to remove cytotoxic primary hits, we first tested a panel of kinase inhibitors with established mechanisms of action.
For Axl+ cells, the transduced cells were spun down at 500×g for 5 min and resuspended in media supplemented with 10 ng/mL IL-3 and 3 μg/mL puromycin (Invitrogen). Cells were maintained in these conditions for 7 days, passaging as required. After 7 days the cells were spun down, washed with fresh media, and then suspended in IL-3 free media. The cells were maintained in these conditions for 2 weeks to select for an IL-3 independent population of Axl+ driven cells.
(§2) Proliferation Assays. For adherent cell lines, cells were plated onto opaque white 96 well plates (Greiner cat #655083) and allowed to adhere overnight. The following day media was changed to fresh media that contained either DMSO or the indicated concentration of drug plus NRG (50 ng/mL final concentration) as indicated. Plates were incubated at 37° C. for 72 h and proliferation was read out using Cell Titer Glo (Promega) according to the manufacturer's protocol. For Ba/F3 cell proliferation, cells, drug dilution, and any necessary growth factors (10 ng/mL IL-3 or 6.25 ng/mL NRG) were combined in a well of a 96 well plate. Plates were incubated at 37° C. for 48 h and proliferation was read out using Cell Titer Glo according to the manufacturer's protocol. For all normalized assays, proliferation was normalized to the DMSO control condition. All graphs were plotted in GraphPad Prism 6 and fit with a non-linear regression of the log(inhibitor) vs response with a variable slope where shown. All graphs are averages (+/−standard deviation) of biological triplicates each performed in technical triplicate unless otherwise noted. If only one biological replicate was performed standard deviations were derived from the technical replicates.

[2] = test system: parental Ba/F3 cells + IL-3; test: Ba/F3 proliferation assay, Parental + IL-3; details: Tables 7 and 8, read-out: Ba/F3 line IC50, Parental + IL-3
Procedure: as §1, §2

HER2+/2VE Ba/F3 line = test: Ba/F3 proliferation assay, HER2+/2VE; details: Tables 7 and 8
Procedure: as §2

Sequence of 2YF/3wt + NRG Ba/F3 cells (HER2YF/HER3wt) (P04626 whole entry Y1005F/Y1023F/Y1112F/Y1127F/Y1139F/Y1196F/Y1221F/Y1222F/Y1248F): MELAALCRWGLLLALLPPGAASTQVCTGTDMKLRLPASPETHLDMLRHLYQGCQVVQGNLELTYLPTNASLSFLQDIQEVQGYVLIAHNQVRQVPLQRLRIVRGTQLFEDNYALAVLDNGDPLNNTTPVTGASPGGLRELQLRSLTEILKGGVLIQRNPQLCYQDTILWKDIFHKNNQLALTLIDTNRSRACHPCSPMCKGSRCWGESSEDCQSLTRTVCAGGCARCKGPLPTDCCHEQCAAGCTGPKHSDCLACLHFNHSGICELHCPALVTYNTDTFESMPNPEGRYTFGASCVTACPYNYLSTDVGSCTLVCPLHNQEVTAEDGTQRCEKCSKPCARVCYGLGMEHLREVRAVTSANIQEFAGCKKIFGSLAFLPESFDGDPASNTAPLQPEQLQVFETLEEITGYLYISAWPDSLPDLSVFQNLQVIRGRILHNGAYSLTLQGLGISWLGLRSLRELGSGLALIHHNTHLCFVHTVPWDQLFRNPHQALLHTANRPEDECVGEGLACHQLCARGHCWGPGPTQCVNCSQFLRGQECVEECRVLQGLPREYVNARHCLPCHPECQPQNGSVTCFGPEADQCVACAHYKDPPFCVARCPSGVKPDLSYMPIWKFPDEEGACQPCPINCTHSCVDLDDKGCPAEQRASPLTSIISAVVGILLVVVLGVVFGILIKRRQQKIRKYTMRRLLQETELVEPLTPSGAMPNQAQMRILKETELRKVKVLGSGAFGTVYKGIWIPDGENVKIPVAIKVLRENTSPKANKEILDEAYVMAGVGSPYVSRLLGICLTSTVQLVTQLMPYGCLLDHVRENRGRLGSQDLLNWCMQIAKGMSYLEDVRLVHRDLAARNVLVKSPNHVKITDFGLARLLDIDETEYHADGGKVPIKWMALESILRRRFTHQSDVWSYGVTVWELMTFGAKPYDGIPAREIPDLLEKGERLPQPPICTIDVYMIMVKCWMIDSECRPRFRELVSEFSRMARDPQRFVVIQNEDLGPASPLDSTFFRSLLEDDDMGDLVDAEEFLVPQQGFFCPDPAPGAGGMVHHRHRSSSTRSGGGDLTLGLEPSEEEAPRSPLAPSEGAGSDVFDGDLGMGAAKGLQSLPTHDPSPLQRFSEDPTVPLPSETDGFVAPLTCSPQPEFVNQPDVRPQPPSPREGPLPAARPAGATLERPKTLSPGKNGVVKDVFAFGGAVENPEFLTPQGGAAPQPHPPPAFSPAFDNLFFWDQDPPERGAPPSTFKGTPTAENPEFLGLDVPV

Row | GI50 [1] | GI50 (Axl+ Ba/F3 cells) | IC50 (HER2+/2VE Ba/F3 line; Mus musculus, BaF3) | IC50 (HER2+/2VE Ba/F3 line) | SMILES | IC50 ([2]; Mus musculus, BaF3) | IC50 [2]
1 | 0.884 µM | 1.01 µM | 1.11 µM |  | COc1ccc(-c2ccccc2)cc1Nc1ncnc2[nH]nc(-c3ccc(C#N)cc3)c12 [Cmpd 191D] | 1.74 µM | 
2 | 0.0126 µM | > 10 µM | 0.0829 µM |  | COc1ccc(-c2ccoc2)cc1Nc1ncnc2[nH]nc(-c3cn[nH]c3)c12 [Cmpd 57B] | > 10 µM | 
3 | 0.15 µM | 0.506 µM | 0.769 µM |  | CC(=O)c1cccc(-c2n[nH]c3ncnc(Nc4cc(-c5ccccc5)ccc4O)c23)c1 [Cmpd 191A] | 2.91 µM | 
4 | 0.021 µM | > 10 µM | 0.46 µM |  | COc1ccc(-c2ccoc2)cc1Nc1ncnc2[nH]nc(-c3ccco3)c12 [Cmpd 57A] | > 10 µM | 
5 | > 10 µM | > 10 µM | > 10 µM |  | COc1ccc(-c2ccccc2)cc1Nc1ncnc2[nH]nc(-c3ccc(C(C)=O)cc3)c12 [Cmpd 191H] | > 10 µM | 
6 | > 10 µM | > 10 µM | > 10 µM |  | CC(=O)c1cccc(-c2n[nH]c3ncnc(Nc4ccc(-c5ccccc5)cc4)c23)c1 [Cmpd 188B] | > 10 µM | 
7 | > 10 µM | > 10 µM | > 10 µM |  | COc1ccccc1Nc1ncnc2[nH]nc(-c3ccccc3)c12 [Cmpd 187A] | > 10 µM | 
8 | > 10 µM | > 10 µM | > 10 µM |  | c1ccc(-c2ccc(Nc3ncnc4[nH]nc(-c5ccccc5)c34)cc2)cc1 [Cmpd 188A] | > 10 µM | 
9 | 0.0395 µM | > 3.33 µM | 0.908 µM |  | COc1ccc(-c2ccco2)cc1Nc1ncnc2[nH]nc(-c3ccco3)c12 [55A] | > 10 µM | 
10 | > 10 µM | > 10 µM | > 10 µM |  | c1ccc(-c2cccc(Nc3ncnc4[nH]nc(-c5ccccc5)c34)c2)cc1 [Cmpd 186A] | > 10 µM | 
11 | > 10 µM | > 10 µM | > 10 µM |  | COc1ccccc1Nc1ncnc2[nH]nc(-c3cccc(C(C)=O)c3)c12 [Cmpd 187B] | > 10 µM | 
12 | > 1 µM | > 1 µM | > 1 µM |  | COc1ccc(-c2ccccc2)cc1Nc1ncnc2[nH]nc(-c3cccc4ccccc34)c12 [Cmpd 191B] | > 1 µM | 
13 | > 10 µM | > 10 µM |  | > 10 µM | COc1ccc(-c2n[nH]c3ncnc(Nc4cc(-c5ccccc5)ccc4OC)c23)cc1 [Cmpd 189B] |  | > 10 µM
14 | > 10 µM | > 10 µM | > 10 µM |  | CC(=O)c1cccc(-c2n[nH]c3ncnc(Nc4cccc(-c5ccccc5)c4)c23)c1 [Cmpd 186B] | > 10 µM | 

Continued, molecule first:

Row | SMILES | GI50 [1] | GI50 (Axl+ Ba/F3 cells) | IC50 (HER2+/2VE Ba/F3 line; Mus musculus, BaF3) | IC50 (HER2+/2VE Ba/F3 line) | IC50 ([2]; Mus musculus, BaF3) | IC50 [2]
15 | COc1ccc(-c2ccccc2)cc1Nc1ncnc2[nH]nc(-c3ccco3)c12 [Cmpd 45A] | 0.043 µM | 1.21 µM | 0.978 µM |  | > 10 µM | 
16 | COc1ccc(-c2ccccc2)cc1Nc1ncnc2[nH]nc(-c3cccc(C(N)=O)c3)c12 [Cmpd 45D] | 0.27 µM | 0.88 µM | 0.869 µM |  | 3.01 µM | 
17 | COc1ccc(-c2ccccc2)cc1Nc1ncnc2[nH]nc(-c3cccs3)c12 [Cmpd 45B] | 0.745 µM | 4.03 µM | 3.61 µM |  | > 10 µM | 
18 | COc1ccc(-c2ccccc2C)cc1Nc1ncnc2[nH]nc(-c3ccsc3)c12 [Cmpd 39A] | > 3.33 µM | > 10 µM | > 10 µM |  | > 10 µM | 
19 | COc1ccc(-c2ccccc2)cc1Nc1ncnc2[nH]nc(-c3ccoc3)c12 [Cmpd 13] | 0.839 µM | 2.96 µM | 3.4 µM |  | > 10 µM | 
20 | COc1ccc(-c2ccccc2)cc1Nc1ncnc2[nH]nc(-c3cccc(C(C)=O)c3)c12 [compound 185, 1-(3-(4-((4-methoxy-[1,1′-biphenyl]-3-yl)amino)-1H-pyrazolo[3,4-d]pyrimidin-3-yl)phenyl)ethanone] | 0.148 µM | 0.257 µM | 0.243 µM |  | 1.49 µM | 
21 | COc1ccc(-c2ccccc2)cc1Nc1ncnc2[nH]nc(-c3ccc[nH]3)c12 [Cmpd 45C] | 0.952 µM | > 3.33 µM | > 3.33 µM |  | > 10 µM | 
22 | COc1ccc(-c2ccccc2)cc1Nc1ncnc2[nH]nc(-c3ccccc3)c12 [Cmpd 184] | 0.386 µM | 0.527 µM | 1.29 µM |  | 9.95 µM | 
23 | COc1ccc(-c2ccccc2)cc1Nc1ncnc2[nH]nc(-c3cn[nH]c3)c12 [Cmpd 45E] | 0.053 µM | > 10 µM | 1.35 µM |  | > 10 µM | 
24 | CC(=O)c1cccc(-c2n[nH]c3ncnc(Nc4cc(-c5ccccc5)ccc4C)c23)c1 [Cmpd 5-001A] | > 3.33 µM | > 3.33 µM | > 3.33 µM |  | > 10 µM | 
25 | COc1ccc(-c2ccco2)cc1Nc1ncnc2[nH]nc(-c3cn[nH]c3)c12 [Cmpd 53B] | 0.0139 µM | > 10 µM | 0.0835 µM |  | > 10 µM | 
26 | COc1ccc(N2CCN(C)CC2)cc1Nc1ncnc2[nH]nc(-c3ccsc3)c12 [Cmpd 41B] | > 3.33 µM | > 1 µM | > 1 µM |  | > 3.33 µM | 
27 | COc1ccc(-c2cccnc2)cc1Nc1ncnc2[nH]nc(-c3ccsc3)c12 [Cmpd 39D] | > 10 µM | > 10 µM | > 10 µM |  | > 10 µM | 
28 | COc1ccc(-c2ccccc2)cc1Nc1ncnc2[nH]ncc12 [Cmpd 5-004] | 2.59 µM | 6.94 µM | 3.15 µM |  | > 3.33 µM | 
